From patent US20100081622A1, “Reduction of parathyroid hormone levels” (Sanos Bioscience A/S, priority 2008, published 2010)

Columns and labels:
serum PTH = settings: tHPT patients, after 10 weeks of treatment; cited from earlier work
[1] = rats; cited from earlier work
plasma PTH [2] = assay: Plasma PTH at Day 1 and Day 120 after daily bedtime administration for 120 days (Example 3); type: in vivo, human; settings: postmenopausal women with osteopenia; daily 0.4, 1.6 or 3.2 mg subcutaneous at bedtime for 120 days plus calcium and vitamin D
Experimental: The study was a randomised, double-blinded, placebo-controlled, parallel group and dose-ranging study in 160 postmenopausal women with osteopenia (BMD T-score, −2.5≦T≦−1.0) at one or more of the regions: the lumbar spine, femoral neck or total hip. Forty (40) subjects were randomised to each treatment group to receive treatment with daily doses of 0.4 mg, 1.6 mg or 3.2 mg of GLP-2 plus calcium (800-1000 mg/day) and vitamin D (400-800 IU/day), or placebo plus calcium (800-1000 mg/day) and vitamin D (400-800 IU/day) for 120 days.
The treatment involved a daily injection of the study medication at bedtime (10:00 pm±1 hour) for 120 consecutive days.
Pharmacokinetic/dynamic sampling during treatment Day 1 and 120 included blood and urine samples collected at the time points: −1 hour, 0 min, 1 hour, 2 hours, 3 hours, 6 hours and 10 hours in connection with the injection of the study medication for the assessment of efficacy parameters and pharmacokinetic/dynamic parameters of subcutaneous injections of GLP-2.

plasma PTH [3] = assay: Plasma PTH after bedtime administration of GLP-2 in non-fasting subjects (Example 2); type: in vivo, human; settings: postmenopausal women, 2x800 μg 3 hrs apart versus 1600 μg once, at bedtime, FIG. 2
Experimental: The study was a randomized, block-stratified, placebo-controlled, parallel study. A total of 44 postmenopausal women were included and randomly assigned to treatment with either 1600 μg GLP-2 (n=14), 800 μg GLP-2 twice (administered 3 hrs apart) (n=15), or placebo, i.e. saline (n=15). All subjects received 2 injections one at 10 pm […] and one 3 hrs later at 1 am […]. Thus, the placebo group was given two injections of saline and the 2×800 μg group two injections of 800 μg GLP-2, while the 1600 μg group received one injection of 1600 μg GLP-2 and one injection of saline.
On the day of treatment with the study medication, blood samples for efficacy measurement was taken from 10 pm every hour until 8 am.

plasma PTH [4] = assay: Plasma PTH after morning administration of GLP-2 in fasting subjects (Example 1); type: in vivo, human; settings: postmenopausal women, one dose of 100, 200, 400 or 800 μg at 9 am, followed 8 hrs, FIG. 1
Experimental: The study was a randomized, block-stratified, placebo-controlled, parallel study. A total of 60 subjects of postmenopausal women were included and allocated to one of five groups each including 12 subjects receiving one dose of 100 μg, 200 μg, 400 μg, 800 μg GLP-2, or placebo.
On the day of treatment with the study medication, the subjects met at the study site after an overnight fast. The study medication was administered at 9 am (0 hrs) and the subjects remained fasting for another 8 hrs, thus at 5 pm the fasting period ended.

Compound: C[C@@H](NCCCc1cccc(C(F)(F)F)c1)c1cccc2ccccc12 [Cinacalcet]
- reduction in serum PTH (serum PTH): 21.8%

Compound: C=C1/C(=C\C=C2/CCC[C@]3(C)[C@@H]([C@H](C)CCCC(C)(C)O)CC[C@@H]23)C[C@@H](O)C[C@@H]1O [calcitriol]
- aortic calcification [1]: moderate to marked aortic calcification

Compound: His-Ala-Asp-Gly-Ser-Phe-Ser-Asp-Glu-Met-Asn-Thr-Ile-Leu-Asp-Asn-Leu-Ala-Ala-Arg-Asp-Phe-Ile-Asn-Trp-Leu-Ile-Gln-Thr-Lys-Ile-Thr-Asp-Arg (HADGSFSDEMNTILDNLAARDFINWLIQTKITDR; printed: His-Ala-Asp-Gly-Ser-Phe-Ser-Asp-Glu-Met-Asn-Thr-Ile-Leu-Asp-Asn-Leu-Ala-Ala-Arg-Asp-Phe-Ile-Asn-Trp-Leu-Ile-Gln-Thr-Lys-Ile-Thr-Asp-Arg) [GLP-2]
- effect on plasma PTH over the treatment period, Day 1 versus Day 120 (plasma PTH [2]): remains consistent
- plasma PTH, area difference between treatment and placebo curves (plasma PTH [3]): two injections of 800 μg produced a greater area difference between the treatment and placebo curves
- plasma PTH level after GLP-2 (plasma PTH [4]): dose dependent rapid decrease in PTH which gradually abates over an 8 hour period
